Reference: patent US5621133A (priority 1995, dated 1997)
Structures can show the parent of a compound that is named as a salt.

Legend:
dopamine D-2 receptor = dopamine D-2 receptor (Rattus norvegicus, UniProt P61169); experiment: biochemical; type: binding; details: rat caudate, [125I]-p-aminophenylethyl spiroperidol; read-out: D-2 Ki
Method: Homogenized rat caudate was the source of the D-2 receptors. […] The molar affinity of the compound for the receptor binding site was calculated by the same method used for the D-1 receptor assay, assuming a competitive interaction between the compound and the radiolabeled ligand.

dopamine D-1 receptor [1] = target: dopamine D-1 receptor (Rattus norvegicus, UniProt P18901); experiment: biochemical; details: D-1 Ki, rat caudate, [125I]SCH-23982
Description: The compounds compete with the radiolabeled ligand for occupancy of the receptors and the molar potency of each compound was quantified.
The Ki values are inversely proportional to the affinity of the compound for the receptor.

dopamine D-1 receptor [2] = details: for Intrinsic Activity (adenylate cyclase assay): dopamine = 100, goldfish retina or rat striatum; for EC50: read-out: EC50 (agonist activity in adenylate cyclase assay), tissue from goldfish retina or rat striatum
Method: In order to determine agonist activity, cell-free tissue homogenates are incubated in an ionic buffer solution containing ATP and the compound being evaluated. The tissue was obtained from either goldfish retina or rat striatum.

Sequence of dopamine D-2 receptor (P61169 whole entry): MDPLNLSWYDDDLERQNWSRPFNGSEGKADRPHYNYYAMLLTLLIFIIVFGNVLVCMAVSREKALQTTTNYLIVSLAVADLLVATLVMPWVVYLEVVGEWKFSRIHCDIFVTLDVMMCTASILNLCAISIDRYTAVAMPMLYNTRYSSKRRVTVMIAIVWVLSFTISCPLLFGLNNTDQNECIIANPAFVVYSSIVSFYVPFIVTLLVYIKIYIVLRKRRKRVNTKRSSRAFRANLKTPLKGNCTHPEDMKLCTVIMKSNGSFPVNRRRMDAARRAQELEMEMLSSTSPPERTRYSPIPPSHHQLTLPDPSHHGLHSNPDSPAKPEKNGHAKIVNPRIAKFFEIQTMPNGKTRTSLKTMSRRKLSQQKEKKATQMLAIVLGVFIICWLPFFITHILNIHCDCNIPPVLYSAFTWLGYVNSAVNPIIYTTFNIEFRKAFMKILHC
Sequence of dopamine D-1 receptor (Rattus norvegicus, UniProt P18901) (P18901 whole entry): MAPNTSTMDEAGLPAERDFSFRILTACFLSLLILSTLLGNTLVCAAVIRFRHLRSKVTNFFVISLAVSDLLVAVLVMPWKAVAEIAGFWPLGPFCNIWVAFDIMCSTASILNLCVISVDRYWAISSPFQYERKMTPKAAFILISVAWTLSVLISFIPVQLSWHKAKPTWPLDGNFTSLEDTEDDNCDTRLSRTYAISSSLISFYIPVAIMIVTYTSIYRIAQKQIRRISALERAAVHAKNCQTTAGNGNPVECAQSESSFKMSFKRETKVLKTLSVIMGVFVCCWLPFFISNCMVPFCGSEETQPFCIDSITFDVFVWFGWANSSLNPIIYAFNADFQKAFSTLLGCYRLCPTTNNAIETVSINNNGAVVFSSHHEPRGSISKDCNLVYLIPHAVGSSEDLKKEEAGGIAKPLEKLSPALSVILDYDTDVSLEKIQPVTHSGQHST

Ki (dopamine D-2 receptor) [nM] | Ki (dopamine D-1 receptor [1]) [nM] | Intrinsic Activity (adenylate cyclase assay) (dopamine D-1 receptor [2]) | EC50 (dopamine D-1 receptor [2]) [nM] | Compound
550 | 2900 | 93 | 1000 | CNC[C@H]1O[C@@H](Cc2ccc(OC)cc2)Cc2c1ccc(O)c2O (relative stereo) [Example 137]
16000 | 6300 | 127 | 9500 | NC[C@H]1O[C@@H](CN2CCCC2)Cc2c1ccc(O)c2O (relative stereo) [Example 156, [1,3-cis]1-Aminomethyl-3,4-dihydro-5,6-dihydroxy-3-pyrrolidinylmethyl-1H-2-benzopyran Dihydrochloride]
1600 | 180 | 136 | 7 | CCCC[C@H]1Cc2c(ccc(O)c2O)[C@@H](CNC)O1 (relative stereo) [Example 135]
> 10000 | 17000 | 103 | 270 | NC[C@H]1O[C@@H](CNC(=O)c2ccco2)Cc2c1ccc(O)c2O (relative stereo) [Example 168]
> 10000 | 290 | 135 | 670 | NC[C@@H]1O[C@H](CCC2CCCCC2)Cc2c1ccc(O)c2O (relative stereo) [Example 91]
8200 | 2600 | 95 | 150 | NC[C@H]1O[C@@H](CO)Cc2c1ccc(O)c2O (relative stereo) [Example 155, [1,3-cis]1-Aminomethyl-3,4-dihydro-5,6-dihydroxy-3-hydroxymethyl-1H-2-benzopyran Hydrochloride]
> 10000 | 2700 | 63 | 1000 | C=CCNC[C@H]1O[C@@H](CCCC)Cc2c1ccc(O)c2O (relative stereo) [Example 125]
820 | 11 | 107 | 7 | COc1cccc([C@@H]2Cc3c(ccc(O)c3O)[C@H](CN)O2)c1 (relative stereo) [Example 82]
1300 | 290 | 76 | 6 | NC[C@@H]1O[C@H](CCc2ccccc2)Cc2c1ccc(O)c2O (relative stereo) [Example 61]
2500 | 100 | 133 | 5 | CNC[C@H]1O[C@@H](c2ccc(F)cc2)Cc2c1ccc(O)c2O (relative stereo) [Example 136]
140 | 570 | 151 | 130 | NC[C@H]1O[C@@H](CNC(=O)c2cccnc2)Cc2c1ccc(O)c2O (relative stereo) [Example 170]
> 10000 | 1100 | 116 | 220 | CC(=O)NCC[C@H]1Cc2c(ccc(O)c2O)[C@@H](CN)O1 (relative stereo) [Example 172]
2200 | 530 | 93 | 37 | NC[C@@H]1O[C@H](Cc2ccccc2)Cc2c1ccc(O)c2O (relative stereo) [Example 60]
3700 | 210 | 111 | 170 | NC[C@@H]1O[C@H](c2ccccc2)Cc2c1cc(Br)c(O)c2O (relative stereo) [Example 62]

Continued, compound first:

Compound | Ki (dopamine D-2 receptor) [nM] | Ki (dopamine D-1 receptor [1]) [nM] | Intrinsic Activity (adenylate cyclase assay) (dopamine D-1 receptor [2]) | EC50 (dopamine D-1 receptor [2]) [nM]
CN1CCC2=C(C1)c1ccc(O)c(O)c1CC21CCCC1 [Example 211] | > 10000 | 580 | 38 | 63
CCCCC1Cc2c(ccc(O)c2O)C2=C1CCNC2 (stereo not drawn) [Example 243] | 3000 | 70 | 83 | 950
C=CCNC[C@H]1O[C@@H](C23CC4CC(CC(C4)C2)C3)Cc2c1ccc(O)c2O (relative stereo) [Example 117] | 1000 | 1200 | 60 | 80
NCC1=CC(c2cccc3ccccc23)Cc2c1ccc(O)c2O (stereo not drawn) [Example 41] | 2500 | 700 | 81 | 1800
Oc1ccc2c(c1O)C[C@H](C1CCCCC1)O[C@@H]2CN1CCCC1 (relative stereo) [Example 115] | 3000 | 12000 | 68 | 2200
CN(C)C[C@@H]1O[C@H](C2(c3ccccc3)CCCCC2)Cc2c1ccc(O)c2O (relative stereo) [Example 229] | 3600 | 260 | 34 | 330
NCCC(=O)Oc1ccc2c(c1OC(=O)CCN)CC(c1ccccc1)C=C2CN (stereo not drawn) [Example 27] | 6600 | > 10000 |  | 200
CNC[C@@H]1O[C@H](C23CC4CC(CC(C4)C2)C3)Cc2c1ccc(O)c2O [Example 134] | 1000 | 35 | 81 | 4
CCN1CCC2=C(C1)c1ccc(O)c(O)c1CC21CCCCCC1 [Example 251] | 1200 | 530 | 41 | 470
Oc1ccc2c(c1O)C[C@H](C1CCCCC1)O[C@@H]2CNC1CC1 (relative stereo) [Example 114] | 900 | 420 | 60 | 60
CNCC1=CC(c2ccccc2)Cc2c1ccc(O)c2O (stereo not drawn) [Example 149, 5,6-Dihydroxy-1-(N-methyl)aminomethyl-3-phenyl-3,4,-dihydronaphthalene] | 19000 | 460 | 78 | 36
NCC1CC2(CCCCCC2)Cc2c1ccc(O)c2O (stereo not drawn) [Example 193] | 3200 | 650 | 63 | 680
O=CO.Oc1ccc2c(c1O)CC(c1ccccc1)C1=C2CNC1 (stereo not drawn) [Example 184, 6,7-Dihydroxy-4-phenyl-2,3,4,5-tetrahydro-1H-benz[e]isoindole Formic Acid Salt] | > 10000 | 70 | 47 | 22
CCC(=O)Oc1ccc2c(c1OC(=O)CC)CC(c1ccccc1)C=C2CN (stereo not drawn) [Example 20] | > 10000 | 1900 | 80 | 500
CNCC1OC2(CCCCCC2)Cc2c1ccc(O)c2O (stereo not drawn) [Example 141] | 2600 | 120 | 97 | 80
Oc1ccc2c(c1O)C[C@@H](c1ccccc1)C[C@H]2[C@H]1CCCN1 (relative stereo) [Example 180, [1,3-cis]5,6-Dihydroxy-3-phenyl-1-(2'-pyrrolidinyl)-1,2,3,4-tetrahydronaphthalene Hydrobromide] | 4700 | 1100 | 71 | 80
NCC1=CC(c2ccc3ccccc3c2)Cc2c1ccc(O)c2O (stereo not drawn) [Example 40] | 27000 | 5000 | 86 | 1100
